From patent US11639350B2, “Heteroaryldihydropyrimidine derivatives and methods of treating hepatitis B infections” (Janssen Pharmaceutica NV, priority 2018, dated 2023)
pEC50: −log10 of the molar value.

Experiments:
[1] = tested on: HBV; assay: HBV inhibitory activity: HBV DNA in the culture medium of HepG2.2.15 cells by q-PCR; format: cell-based; settings: HepG2.2.15 cells, 6 days of compound treatment, HBV DNA in culture medium by q-PCR, highest concentration 10 μM; read-out: EC50
Outline: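 Supernatant HBV DNA quantified by q-PCR after a 6-day compound exposure, with one mid-course medium change, of HepG2.2.15 cells (stably integrated HBV; 40,000 per well, 2% FBS). Eight-point 3-fold series topped at 10 μM for antiviral EC50; separate plates of 5,000 cells per well with 100 μM top give CC50.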

[2] = tested on: HepG2.2.15 cells; assay: Cytotoxicity determination in HepG2.2.15 cells (CCK-8); format: cell-based; settings: 6 days of compound treatment, CCK-8, highest concentration 100 μM
Outline: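 CC50 is from CCK-8 absorbance (450 nm, 630 nm reference) after 2.5 h with reagent. Before that, compounds were applied for six days, top concentration 100 μM, eight threefold dilutions, one mid-course medium change, to stably HBV-integrated HepG2.2.15 cells plated at 5,000/well in 2% FBS.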

Compound	pEC50 [1]	CC50 [2] [µM]
COC(=O)C1=C(C2CCN(S(=O)(=O)C3CC(C)(C(=O)O)C3)CC2)NC(c2nccs2)=NC1c1ccc(F)cc1C (stereo not drawn) [Compound 447C, (trans)-3-((4-(6-(4-Fluoro-2-methylphenyl)-5-(methoxycarbonyl)-2-(thiazol-2-yl)-3,6-dihydropyrimidin-4-yl)piperidin-1-yl)sulfonyl)-1-methylcyclobutanecarboxylic Acid]	7.10	48.2
CCOC(=O)C1=C(C2CCN(S(=O)(=O)CC3CC(C(=O)O)C3)CC2)NC(c2nccs2)=NC1c1ccc(F)c(F)c1Cl (stereo not drawn) [Compound 480Y, 3-(((4-(6-(2-Chloro-3,4-difluorophenyl)-5-(ethoxycarbonyl)-2-(thiazol-2-yl)-3,6-dihydropyrimidin-4-yl)piperidin-1-yl)sulfonyl)methyl)cyclobutanecarboxylic Acid]	7.96	10.2
CCOC(=O)C1=C(C2CCN(S(=O)(=O)C3CC(CC(=O)O)C3)CC2)NC(c2nccs2)=NC1c1ccc(F)c(F)c1Cl (stereo not drawn) [Compound 482B, 2-(3-((4-(6-(2-Chloro-3,4-difluorophenyl)-5-(ethoxycarbonyl)-2-(thiazol-2-yl)-3,6-dihydropyrimidin-4-yl)piperidin-1-yl)sulfonyl)cyclobutyl)acetic Acid]	7.96	11.3
